In patent publication EP0532446A1, “Use of xanthines in the treatment or prevention of hypeoglycemia” (NOVO NORDISK A/S, priority 1991, dated 1993):
Values joined by “and” are separate entries in the source; they are usually repeats but may differ in a detail not shown here. Equal values may be shown once.

What was measured:
Type in all cases: in vivo
[1] = Influence of theophyllamine on the blood glucose level after insulin-induced hypoglycaemia in healthy subjects
Method: (§1) Under carefully controlled conditions hypoglycaemia was induced in each of eleven healty subjects by injection of Actrapid® Human insulin, 0.15 IU/kg (available from Novo Nordisk A/S, Bagsvaerd, Denmark). The blood glucose level was monitored from just before the injection of the insulin took place until 2 hours after. The basal level, the nadir level and the level after 1 hour and 2 hours for each subject are given in Table 1 under the entry "placebo".
(§2) On a different day a study similar to the one described above was performed on the same subjects, the only difference being that in this second study theophyllamine was administered concomitantly with the insulin. The theophyllamine was administered in the form of a bolus injection of 220 mg per person given at the same time as the insulin followed by a constant rate infusion of theophyllamine of 2,5 mg/kg body weight/hour. The corresponding glucose levels are given in Table 1 under the entry "theophyllamine".

[2] = Awareness of early hypoglycaemia warning symptoms in diabetic patients taking theophyllamine regularly; conditions: some diabetic patients who have taken theophyllamine regularly as a preventive measure
Text: Usually hypoglycaemia can be relieved by administration of glucose or glucagon. Normally, but not always, a hypoglycaemic episode is preceded by some early warning symptoms which makes it possible for the patient to take measures against it. Throughout this specification the diabetic patients' attention to these early warning symptoms is in accordance with the common usage referred to as the "awareness".

[3] = Influence of theophyllamine on the blood glucose level after insulin-induced hypoglycaemia in diabetic patients
Method: as §1, with “of nine diabetic patients” for “of eleven healty subjects”, “Table 2” for “Table 1”
as §2, with “patients,” for “subjects,”, “person” for “person given at the same time as the insulin”, “2” for “1”

[4] = healthy subjects, given concomitantly with the insulin
[5] = individual healthy subjects No. 1-11, insulin 0.15 IU/kg, theophyllamine bolus 220 mg per person + infusion 2,5 mg/kg body weight/hour
[6] = mean of eleven healthy subjects, insulin 0.15 IU/kg, theophyllamine bolus 220 mg per person + infusion 2,5 mg/kg body weight/hour
[7] = diabetic patients, given concomitantly with the insulin
[8] = individual diabetic patients No. 1-9, insulin 0.15 IU/kg, theophyllamine bolus 220 mg per person + infusion 2,5 mg/kg body weight/hour
[9] = mean of nine diabetic patients, insulin 0.15 IU/kg, theophyllamine bolus 220 mg per person + infusion 2,5 mg/kg body weight/hour

Compound: Cn1c(=O)c2[nH]cnc2n(C)c1=O [Theophyllamine, theophyllamine]
- glucose level 1 hour after the administration of insulin compared with insulin alone (placebo) [1, 4]: higher
- glucose level 2 hours after the administration of insulin compared with insulin alone (placebo) [1, 4]: higher
- nadir level compared with insulin alone (placebo) [1, 4]: higher
- Nadir Level (blood glucose) [1, 5]: 1.5 mmol/l (2×) and 1.3 mmol/l (2×) and 1.4 mmol/l and 2.0 mmol/l (2×) and 1.9 mmol/l and 1.6 mmol/l and 1.7 mmol/l and 2.4 mmol/l
- blood glucose level 1 hr after insulin [1, 5]: 2.7 mmol/L and 2.4 mmol/L and 2.3 mmol/L and 3.1 mmol/L and 2.8 mmol/L and 2.5 mmol/L and 3.0 mmol/L and 3.8 mmol/L and 2.6 mmol/L and 3.4 mmol/L and 2.0 mmol/L
- blood glucose level 2 hr after insulin [1, 5]: 3.9 mmol/l and 2.6 mmol/l and 3.1 mmol/l and 4.3 mmol/l (2×) and 4.1 mmol/l and 3.5 mmol/l (2×) and 4.5 mmol/l and 5.4 mmol/l and 5.1 mmol/l
- Basal Level (blood glucose) ([1]; individual healthy subjects No. 1-11, just before injection of insulin 0.15 IU/kg and theophyllamine): 5.2 mmol/l (4×) and 5.0 mmol/l (2×) and 5.9 mmol/l and 5.8 mmol/l (2×) and 5.6 mmol/l and 5.7 mmol/l
- Nadir level (blood glucose), MEAN [1, 6]: 1.7 mmol/L
- blood glucose level 1 hr after insulin, MEAN [1, 6]: 2.8 mmol/L
- blood glucose level 2 hr after insulin, MEAN [1, 6]: 4.0 mmol/L
- Basal Level (blood glucose), MEAN ([1]; mean of eleven healthy subjects, just before injection of insulin 0.15 IU/kg and theophyllamine): 5.4 mmol/L
- awareness [2]: improved awareness
- glucose level 1 hour after the administration of insulin compared with insulin alone (placebo) [3, 7]: higher
- glucose level 2 hours after the administration of insulin compared with insulin alone (placebo) [3, 7]: higher
- nadir level compared with insulin alone (placebo) [3, 7]: higher
- Nadir Level (blood glucose) [3, 8]: 1.5 mmol/l (2×) and 4.1 mmol/l and 1.1 mmol/l (2×) and 1.7 mmol/l and 2.6 mmol/l and 1.4 mmol/l and 2.2 mmol/l
- blood glucose level 1 hr after insulin [3, 8]: 2.9 mmol/l (2×) and 2.1 mmol/l (3×) and 4.4 mmol/l and 1.9 mmol/l and 2.5 mmol/l (2×)
- blood glucose level 2 hr after insulin [3, 8]: 4.8 mmol/l and 3.7 mmol/l (2×) and 6.4 mmol/l and 3.1 mmol/l and 3.0 mmol/l (3×) and 3.8 mmol/l
- Basal Level (blood glucose) ([3]; individual diabetic patients No. 1-9, just before injection of insulin 0.15 IU/kg and theophyllamine): 4.8 mmol/l and 4.5 mmol/l (2×) and 5.5 mmol/l and 4.6 mmol/l and 5.6 mmol/l and 4.7 mmol/l and 6.0 mmol/l and 4.9 mmol/l
- Nadir level (blood glucose), MEAN [3, 9]: 2.2 mmol/L
- blood glucose level 1 hr after insulin, MEAN [3, 9]: 2.6 mmol/L
- blood glucose level 2 hr after insulin, MEAN [3, 9]: 3.8 mmol/L
- Basal Level (blood glucose), MEAN ([3]; mean of nine diabetic patients, just before injection of insulin 0.15 IU/kg and theophyllamine): 5.0 mmol/L
